Results published in ChEMBL document CHEMBL4257566, “Design, synthesis and structure-based optimization of novel isoxazole-containing benzamide derivatives as FtsZ modulators” (Eur J Med Chem, 2018).
Values after ≈ are worked out from the molar mass of the structure shown.

Columns and labels:
Assay type in all cases: functional
Staphylococcus aureus [1] = experiment: Antibacterial activity against clinical isolate of penicillin-resistant Staphylococcus aureus after 24 hrs by broth microdilution based CLSI method
Bacillus pumilus = experiment: Antibacterial activity against Bacillus pumilus CMCC63202 after 24 hrs by broth microdilution based CLSI method; details: CMCC63202, 24 h
Staphylococcus aureus [2] = experiment: Antibacterial activity against methicillin-resistant Staphylococcus aureus ATCC 43300 after 24 hrs by broth microdilution based CLSI method; details: ATCC 43300, 24 h
Pseudomonas aeruginosa = experiment: Antibacterial activity against Pseudomonas aeruginosa ATCC 27853 after 24 hrs by broth microdilution based CLSI method; details: ATCC 27853, 24 h
Bacillus subtilis = experiment: Antibacterial activity against Bacillus subtilis ATCC 9372 after 24 hrs by broth microdilution based CLSI method; details: ATCC 9372, 24 h
Staphylococcus aureus [3] = experiment: Antibacterial activity against Staphylococcus aureus ATCC 25923 after 24 hrs by broth microdilution based CLSI method; details: ATCC 25923, 24 h
Escherichia coli = experiment: Antibacterial activity against Escherichia coli ATCC 25922 after 24 hrs by broth microdilution based CLSI method; details: ATCC 25922, 24 h

Compound | MIC (Staphylococcus aureus [1]) | MIC (Bacillus pumilus) | MIC (Staphylococcus aureus [2]) | MIC (Pseudomonas aeruginosa) | MIC (Bacillus subtilis) | MIC (Staphylococcus aureus [3]) | MIC (Escherichia coli)
CCOc1ccc(-c2cc(COc3ccc(F)c(C(N)=O)c3F)on2)cc1 | > 64 µg/mL | > 64 µg/mL | > 64 µg/mL | > 64 µg/mL | 1 µg/mL (≈ 2.67 µM) | > 64 µg/mL | > 64 µg/mL
CCCCOc1ccc(-c2cc(COc3ccc(F)c(C(N)=O)c3F)on2)cc1 | > 64 µg/mL | > 64 µg/mL | > 64 µg/mL | > 64 µg/mL | > 64 µg/mL | > 64 µg/mL | > 64 µg/mL
NC(=O)c1c(F)ccc(OCc2cc(-c3ccc(-c4cccc5ccccc45)cc3)no2)c1F | > 64 µg/mL | > 64 µg/mL | > 64 µg/mL | > 64 µg/mL | > 64 µg/mL | > 64 µg/mL | > 64 µg/mL
NC(=O)c1c(F)ccc(OCc2cc(-c3ccc(Cl)cc3Cl)no2)c1F | > 64 µg/mL | 0.5 µg/mL (≈ 1.25 µM) | 4 µg/mL (≈ 10 µM) | > 64 µg/mL | 0.5 µg/mL (≈ 1.25 µM) | 8 µg/mL (≈ 20 µM) | > 64 µg/mL
NC(=O)c1c(F)ccc(OCc2cc(-c3ccccc3Cl)no2)c1F | > 64 µg/mL | 16 µg/mL (≈ 43.9 µM) | > 64 µg/mL | > 64 µg/mL | 8 µg/mL (≈ 21.9 µM) | > 64 µg/mL | > 64 µg/mL
NC(=O)c1c(F)ccc(OCc2noc(-c3ccc(Cl)cc3)c2Br)c1F | > 64 µg/mL | > 64 µg/mL | > 64 µg/mL | > 64 µg/mL | > 64 µg/mL | > 64 µg/mL | > 64 µg/mL
CC(C)=Cc1cc(COc2ccc(F)c(C(N)=O)c2F)on1 | > 64 µg/mL | > 64 µg/mL | > 64 µg/mL | > 64 µg/mL | 32 µg/mL (≈ 104 µM) | > 64 µg/mL | > 64 µg/mL
NC(=O)c1c(F)ccc(OCc2cc(-c3ccco3)no2)c1F | > 64 µg/mL | > 64 µg/mL | > 64 µg/mL | > 64 µg/mL | 32 µg/mL (≈ 99.9 µM) | > 64 µg/mL | > 64 µg/mL
NC(=O)c1c(F)ccc(OCc2cc(-c3ccc(Cl)c(Cl)c3)no2)c1F | > 64 µg/mL | > 64 µg/mL | > 64 µg/mL | > 64 µg/mL | 64 µg/mL (≈ 160 µM) | > 64 µg/mL | > 64 µg/mL
NC(=O)c1c(F)ccc(OCc2cc(-c3cccc(Cl)c3)no2)c1F | > 64 µg/mL | > 64 µg/mL | > 64 µg/mL | > 64 µg/mL | 8 µg/mL (≈ 21.9 µM) | > 64 µg/mL | > 64 µg/mL
NC(=O)c1c(F)ccc(OCc2cc(-c3ccc(Cl)cc3Cl)on2)c1F | > 64 µg/mL | 8 µg/mL (≈ 20 µM) | > 64 µg/mL | > 64 µg/mL | 0.5 µg/mL (≈ 1.25 µM) | > 64 µg/mL | > 64 µg/mL
NC(=O)c1c(F)ccc(OCc2cc(-c3cccs3)no2)c1F | > 64 µg/mL | > 64 µg/mL | > 64 µg/mL | > 64 µg/mL | 32 µg/mL (≈ 95.1 µM) | > 64 µg/mL | > 64 µg/mL
COc1ccccc1-c1cc(COc2ccc(F)c(C(N)=O)c2F)on1 | > 64 µg/mL | > 64 µg/mL | > 64 µg/mL | > 64 µg/mL | > 64 µg/mL | > 64 µg/mL | > 64 µg/mL
COc1ccc(-c2cc(COc3ccc(F)c(C(N)=O)c3F)on2)cc1OC | > 64 µg/mL | > 64 µg/mL | > 64 µg/mL | > 64 µg/mL | > 64 µg/mL | > 64 µg/mL | > 64 µg/mL
NC(=O)c1c(F)ccc(OCc2cc(-c3ccc(-c4ccccn4)cc3)no2)c1F | > 64 µg/mL | > 64 µg/mL | > 64 µg/mL | > 64 µg/mL | 64 µg/mL (≈ 157 µM) | > 64 µg/mL | > 64 µg/mL
Cc1ccc(-c2cc(COc3ccc(F)c(C(N)=O)c3F)on2)cc1 | > 64 µg/mL | > 64 µg/mL | > 64 µg/mL | > 64 µg/mL | 8 µg/mL (≈ 23.2 µM) | > 64 µg/mL | > 64 µg/mL
CCOc1ccc(-c2cc(COc3ccc(F)c(C(N)=O)c3F)no2)cc1 | > 64 µg/mL | > 64 µg/mL | > 64 µg/mL | > 64 µg/mL | > 64 µg/mL | > 64 µg/mL | > 64 µg/mL
Cc1cccc(-c2cc(COc3ccc(F)c(C(N)=O)c3F)no2)c1 | > 64 µg/mL | > 64 µg/mL | > 64 µg/mL | > 64 µg/mL | 32 µg/mL (≈ 92.9 µM) | > 64 µg/mL | > 64 µg/mL
COc1ccc(-c2cc(COc3ccc(F)c(C(N)=O)c3F)on2)cc1 | > 64 µg/mL | > 64 µg/mL | 4 µg/mL (≈ 11.1 µM) | > 64 µg/mL | 3 µg/mL (≈ 8.33 µM) | 64 µg/mL (≈ 178 µM) | > 64 µg/mL
CC(C)c1ccc(-c2cc(COc3ccc(F)c(C(N)=O)c3F)on2)cc1 | > 64 µg/mL | 32 µg/mL (≈ 85.9 µM) | > 64 µg/mL | > 64 µg/mL | 2 µg/mL (≈ 5.37 µM) | > 64 µg/mL | > 64 µg/mL
